According to paper PMC9307952, “Lipoate protein ligase B primarily recognizes the C8-phosphopantetheine arm of its donor substrate and weakly binds the acyl carrier protein” (The Journal of Biological Chemistry, 2022):

How the values were obtained:
E. coli LipB (EcLipB) [1] = molecular target: T1, E. coli LipB (EcLipB) (Escherichia coli, UniProt P60720, K135A/C169A); conditions: 15N-labelled inactive double mutant, C8-CoA up to 1:2 molar ratio
E. coli LipB (EcLipB) [2] = molecular target: E. coli LipB (EcLipB) (Escherichia coli, UniProt P60720, R71A); conditions: CoA:LipB 10:1, 50 mM Tris, 200 mM NaCl, pH 7.8, 283 K
E. coli LipB (EcLipB) [3] = molecular target: T1, E. coli LipB (EcLipB); conditions: CoA:LipB 10:1, 50 mM Tris, 200 mM NaCl, pH 7.8, 283 K
E. coli LipB (EcLipB) [4] = molecular target: E. coli LipB (EcLipB) (Escherichia coli, UniProt P60720, C169A); conditions: CoA:LipB 8:1, 50 mM Tris, 200 mM NaCl, pH 7.8, 298 K
E. coli LipB (EcLipB) [5] = molecular target: E. coli LipB (EcLipB) (Escherichia coli, UniProt P60720, G72A/G73A); conditions: CoA:LipB 10:1 (STD, 283 K) or 8:1 (31P, 298 K), 50 mM Tris, 200 mM NaCl, pH 7.8

## CCCCCCCC(=O)SCCNC(=O)CCNC(=O)[C@H](O)C(C)(C)COP(=O)(O)OP(=O)(O)OC[C@H]1O[C@@H](n2cnc3c(N)ncnc32)[C@H](O)[C@@H]1OP(=O)(O)O [C8-CoA]
E. coli LipB (EcLipB) [1]
  15N TROSY-HSQC NMR titration: The pattern of amide perturbations though confirmed that E. coli LipB binds C8-CoA

## CC(C)(COP(=O)(O)OP(=O)(O)OC[C@H]1O[C@@H](n2cnc3c(N)ncnc32)[C@H](O)[C@@H]1OP(=O)(O)O)[C@@H](O)C(=O)NCCC(=O)NCCS [CoA]
E. coli LipB (EcLipB) [2]
  1H STD NMR: visible in both the spectra, suggesting binding of CoA with the mutants
E. coli LipB (EcLipB) [3]
  1H STD NMR: STD spectra for CoA in the presence of WT LipB, LipBK135A/C169A (catalytically inactive double mutant)
E. coli LipB (EcLipB) [4]
  31P NMR: upfield change in chemical shift upon addition of WT LipB
E. coli LipB (EcLipB) [5]
  1H STD NMR; 31P NMR: visible in both the spectra, suggesting binding of CoA with the mutants
